Test results taken from the CheMixHub ionic liquid set.

Assay: xn = mol fraction of the nth substance listed

CC[C@H](C)[C@H](N)C(=O)O + CC[n+]1ccn(C)c1.O=S(=O)([O-])O + O
viscosity [mPa·s], 100 kPa
Settings	x1 = 0.0003801, x2 = 0	x1 = 0.0007797, x2 = 0	x1 = 0.00113, x2 = 0	x1 = 0.001526, x2 = 0	x1 = 0.001761, x2 = 0	x1 = 0.002228, x2 = 0	x1 = 0.002748, x2 = 0
293.15 K	1.024	1.046	1.066	1.088	1.101	1.127	1.156
298.15 K	0.902	0.913	0.923	0.934	0.94	0.953	0.968
303.15 K	0.807	0.817	0.826	0.836	0.843	0.855	0.868
308.15 K	0.729	0.739	0.748	0.757	0.763	0.775	0.787
313.15 K	0.661	0.671	0.679	0.688	0.693	0.704	0.716

Cc1ncc(C[n+]2csc(CCO)c2C)c(N)n1.Cl.[Cl-] + CC[n+]1ccn(C)c1.O=S(=O)([O-])O + O
viscosity [mPa·s], 100 kPa
Settings	x1 = 0.0002695, x2 = 0	x1 = 0.0005398, x2 = 0	x1 = 0.0008099, x2 = 0	x1 = 0.00108, x2 = 0	x1 = 0.00135, x2 = 0	x1 = 0.00162, x2 = 0	x1 = 0.001889, x2 = 0
293.15 K	1.01	1.02	1.03	1.03	1.04	1.05	1.06
298.15 K	0.9	0.91	0.92	0.93	0.93	0.94	0.95
303.15 K	0.81	0.81	0.82	0.83	0.84	0.85	0.86
308.15 K	0.73	0.73	0.74	0.75	0.76	0.76	0.77
313.15 K	0.66	0.67	0.68	0.68	0.69	0.7	0.71
318.15 K	0.61	0.61	0.62	0.63	0.64	0.64	0.65

O=C1O[C@H]([C@@H](O)CO)C(O)=C1O + CC[n+]1ccn(C)c1.O=S(=O)([O-])O + O
viscosity [mPa·s], 100 kPa
Settings	x1 = 0.0002709, x2 = 0	x1 = 0.0005412, x2 = 0	x1 = 0.0008101, x2 = 0	x1 = 0.001079, x2 = 0	x1 = 0.001351, x2 = 0	x1 = 0.001618, x2 = 0	x1 = 0.00189, x2 = 0
293.15 K	1.01	1.01	1.02	1.02	1.03	1.03	1.04
298.15 K	0.9	0.9	0.91	0.91	0.92	0.92	0.93
303.15 K	0.8	0.81	0.81	0.82	0.82	0.83	0.84
308.15 K	0.72	0.73	0.73	0.74	0.74	0.75	0.76
313.15 K	0.66	0.66	0.67	0.67	0.68	0.68	0.69
318.15 K	0.61	0.61	0.62	0.62	0.63	0.63	0.64

CCn1cc[n+](C)c1.[Cl][Al-]([Cl])([Cl])[Cl+][Al-]([Cl])([Cl])[Cl] + CC[n+]1ccn(C)c1.[Cl][Al-]([Cl])([Cl])[Cl]
100 kPa, x1 = 1
Settings	viscosity [mPa·s]
313.15 K	9.79
323.15 K	7.943
343.15 K	5.526
353.15 K	4.721

COC(=O)OC + CC[n+]1ccn(C)c1C.O=S(=O)([N-]S(=O)(=O)C(F)(F)F)C(F)(F)F
101.3 kPa, x2 = 0
Settings	viscosity [mPa·s]
288.15 K	0.668
293.15 K	0.628
298.15 K	0.588
303.15 K	0.553
308.15 K	0.524
313.15 K	0.498

CC[n+]1ccn(C)c1.[Cl][Al-]([Cl])([Cl])[Cl] + CCn1cc[n+](C)c1.[Cl][Al-]([Cl])([Cl])[Cl+][Al-]([Cl])([Cl])[Cl]
100 kPa
Settings	viscosity [mPa·s]
293.15 K, x2 = 0.2046	19.38
303.15 K, x2 = 0	15.69
303.15 K, x2 = 0.3035	14.44
303.15 K, x2 = 0.5041	13.77
303.15 K, x2 = 0.6955	13.21
323.15 K, x2 = 0.4003	9.033
323.15 K, x2 = 0.5962	8.65
323.15 K, x2 = 0.6955	8.468
323.15 K, x2 = 0.7963	8.286
333.15 K, x2 = 0.1016	8.016
333.15 K, x2 = 0.2046	7.821
333.15 K, x2 = 0.8901	6.726
343.15 K, x2 = 0.5962	6.037
343.15 K, x2 = 0.6955	5.906
353.15 K, x2 = 0.1016	5.806

CCCCCCCCn1cc[n+](C)c1.N#C[S-] + CN1CCCC1=O
viscosity [mPa·s], 101 kPa
Settings	x1 = 0.0008419	x1 = 0.001327	x1 = 0.002048	x1 = 0.002709	x1 = 0.003576	x1 = 0.004058	x1 = 0.004657	x1 = 0.005393
288.15 K	2.152	2.16	2.177	2.191	2.199	2.204	2.213	2.229
298.15 K	1.809	1.817	1.827	1.834	1.846	1.857	1.865	1.872
308.15 K	1.572	1.58	1.591	1.599	1.61	1.621	1.631	1.641
318.15 K	1.354	1.37	1.393	1.407	1.417	1.434	1.447	1.458

CCCCCCCCn1cc[n+](C)c1.[Cl-] + CN1CCCC1=O
100 kPa
Settings	viscosity [mPa·s]
293.15 K, x2 = 0.3221	787
298.15 K, x2 = 0.3221	541
308.15 K, x2 = 0.7195	14.86
308.15 K, x2 = 0.9085	3.35
318.15 K, x2 = 0.21	324
318.15 K, x2 = 0.5321	43.3
318.15 K, x2 = 0.8143	5.54
323.15 K, x2 = 0.21	244
323.15 K, x2 = 0.8143	4.96
328.15 K, x2 = 0.21	185

CCCCCC[n+]1ccn(C)c1.N#C[S-] + CN1CCCC1=O
viscosity [mPa·s], 101 kPa
Settings	x1 = 0.001079	x1 = 0.001613	x1 = 0.002068	x1 = 0.00265	x1 = 0.003379	x1 = 0.004077	x1 = 0.004588	x1 = 0.005383
288.15 K	2.143	2.148	2.155	2.162	2.168	2.173	2.182	2.186
298.15 K	1.805	1.809	1.82	1.826	1.833	1.841	1.847	1.854
308.15 K	1.567	1.576	1.585	1.593	1.6	1.613	1.619	1.624
318.15 K	1.337	1.35	1.357	1.37	1.38	1.389	1.397	1.402

CCCCCC(=O)[O-].C[NH2+]Cc1ccccc1 + CN(C)C=O
viscosity [mPa·s], 101 kPa
Settings	293.15 K	298.15 K	303.15 K	308.15 K	313.15 K	318.15 K	323.15 K	328.15 K
x1 = 0.004888	0.957	0.916	0.879	0.846	0.817	0.791	0.767	0.746
x1 = 0.008422	0.969	0.926	0.887	0.854	0.824	0.797	0.772	0.75
x1 = 0.0141	0.992	0.946	0.905	0.869	0.837	0.809	0.784	0.76
x1 = 0.01792	1.009	0.961	0.918	0.881	0.847	0.818	0.791	0.767
x1 = 0.02131	1.026	0.975	0.93	0.891	0.857	0.826	0.798	0.773
x1 = 0.02717	1.052	0.998	0.95	0.909	0.873	0.84	0.812	0.786
x1 = 0.03049	1.072	1.016	0.966	0.923	0.884	0.85	0.82	0.793
x1 = 0.03458	1.099	1.038	0.985	0.94	0.899	0.863	0.831	0.803

CCCCCCCCn1cc[n+](C)c1.N#C[S-] + CN(C)C=O
viscosity [mPa·s], 101 kPa
Settings	293.15 K	303.15 K	313.15 K	323.15 K	333.15 K	343.15 K	353.15 K	363.15 K
x1 = 0.004576	0.987	0.872	0.784	0.707	0.65	0.595	0.544	0.504
x1 = 0.007767	1.007	0.891	0.799	0.722	0.658	0.604	0.558	0.515
x1 = 0.01461	1.065	0.948	0.868	0.779	0.705	0.642	0.591	0.543
x1 = 0.02142	1.136	0.994	0.912	0.814	0.728	0.673	0.617	0.563
x1 = 0.02908	1.219	1.057	0.956	0.848	0.764	0.713	0.648	0.598
x1 = 0.03577	1.297	1.134	1.013	0.897	0.808	0.738	0.672	0.618

CCCCCCCCn1cc[n+](C)c1.[Cl-] + CO
101 kPa
Settings	viscosity [mPa·s]
298.15 K, x1 = 0.0197	0.729
298.15 K, x2 = 0.3525	530
298.15 K, x2 = 0.4395	237
298.15 K, x2 = 0.5589	64.1
298.15 K, x2 = 0.8713	2.39
298.15 K, x2 = 0.8813	2.205
313.15 K, x2 = 0.5589	34.97
313.15 K, x2 = 0.8231	3.58
328.15 K, x2 = 0.4395	55.2
328.15 K, x2 = 0.8231	2.496

CCCC[n+]1ccc(C)cc1.F[B-](F)(F)F + CO
101 kPa
Settings	viscosity [mPa·s]
298.15 K, x2 = 0	196
298.15 K, x2 = 0.4287	19.3
298.15 K, x2 = 0.5246	11.58
298.15 K, x2 = 0.9671	0.729
313.15 K, x2 = 0.4287	11.94
313.15 K, x2 = 0.718	2.98
313.15 K, x2 = 0.8803	1.13
323.15 K, x1 = 0.01507	0.447
323.15 K, x2 = 0.8313	1.31
323.15 K, x2 = 0.8803	0.972

CC[n+]1ccn(C)c1.N#C[S-] + CO
100 kPa
Settings	electrical conductivity [S/m]	viscosity [mPa·s]
298.15 K, x1 = 0.5972	2.07	12.8
303.15 K, x1 = 0.3859	2.58	7
303.15 K, x1 = 1	–	20
308.15 K, x1 = 0.0988	2.57	1.9
308.15 K, x1 = 0.5006	2.65	7.9
308.15 K, x1 = 1	2.27	18
323.15 K, x1 = 0.1966	–	2.2
323.15 K, x1 = 0.3005	3.7	3.2
323.15 K, x1 = 0.804	3.13	9.1
323.15 K, x1 = 0.8997	3.08	10.4
323.15 K, x1 = 1	3.05	12

C[N+](C)(C)CCC[N+]1(C)CCCCC1.N#C[N-]C#N.N#C[N-]C#N + CO
100 kPa
Settings	viscosity [mPa·s]
293.15 K, x1 = 0.5002	271
293.15 K, x1 = 0.6001	585
303.15 K, x1 = 0.2001	11.3
303.15 K, x1 = 0.3002	28.5
303.15 K, x1 = 0.5002	160
323.15 K, x1 = 0.0999	2.73
323.15 K, x1 = 0.3002	15.7
333.15 K, x1 = 0.3999	24.9
